Series [1] concerns the target T1, TfQC (Tannerella forsythia, UniProt G8UMP8). It counts as biochemical. The conditions noted are these: Fig. S2. As to the method: (§1) To test whether QC is a metalloenzyme, the turnover of H-Gln-AMC at a concentration corresponding to 0.5 KM was investigated in the presence of the metal chelators 1,10- phenanthroline, dipicolinic acid, and EDTA. The fluorometric activity assay was performed as described above, except for the presence of 1% (v/v) DMSO in the case of 1,10-phenanthroline or dipicolinic acid. Finally, the residual QC activity was determined at steady state, whereas QC without chelators and ± 1% DMSO served as positive control.
(§2) 250 µM H-Gln-AMC and increasing chelator
(§3) concentrations were used to investigate the inhibitory effect on QC activity. Bars indicate residual
(§4) QC activity following initiation of the reaction by adding 5 nM QC (red: PgQC; green: PiQC; blue:
(§5) TfQC). All measurements were performed at 30°C as described in the text.
(§6) (1 picture or pasted object on this page, not shown here)

Series [2] has as its target T2, PiQC (Prevotella intermedia, UniProt A0AAD1F671). It counts as biochemical. The conditions noted are these: for Effect of chelator on QC activity: PiQC, Fig. S2. As to the method: as §1, §2, §3, §4, §5, §6
Series [3] addresses T3, PgQC (Porphyromonas gingivalis, UniProt Q7MT37). The series is described as follows: Residual QC activity in presence of metal chelators. Type of series: biochemical. Also on record: His-tag (pET28a, thrombin-cleavable) (N, cleaved yes); made in house; host or cells: E. coli Rosetta(DE3)pLysS. The conditions noted are these: Fig. S2. As to the method:
as §1
Supplementary Figure 2: Inhibition of bacteroidal QC activity by metal chelators: ( A) ED TA ,
(B) dipicolinic acid and (C) 1,10-phenantroline. 250 µM H-Gln-AMC and increasing chelator
as §3, §4, §5, §6

Series [4] deals with T4, HsQC (Homo sapiens, UniProt Q16769). The series is described as follows: QC inhibition assay with fluorogenic substrate H-Gln-AMC (Ki). It counts as biochemical.
T4 sequence (Q16769 29-361): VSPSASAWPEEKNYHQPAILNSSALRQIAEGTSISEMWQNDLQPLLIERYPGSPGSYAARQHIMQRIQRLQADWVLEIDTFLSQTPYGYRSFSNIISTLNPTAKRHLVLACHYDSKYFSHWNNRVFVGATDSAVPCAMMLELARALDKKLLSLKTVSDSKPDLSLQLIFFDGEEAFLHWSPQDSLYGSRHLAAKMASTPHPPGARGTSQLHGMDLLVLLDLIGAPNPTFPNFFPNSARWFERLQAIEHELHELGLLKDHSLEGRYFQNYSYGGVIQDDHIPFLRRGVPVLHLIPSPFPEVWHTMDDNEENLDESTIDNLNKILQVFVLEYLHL
The target of series [5] is T1, TfQC. The description is as above. Type of series: biochemical. Conditions: 1% DMSO, pH 8.0, 30 °C. The procedure: (§7) Inhibitory constants were determined using concentrations of H-Gln-AMC varying from 1/4 KM to 2 KM and a final concentration of bacterial QC in a range between 25 nM and 50 nM. Progress curves were fitted to the general equation for competitive inhibition.

The target in series [6] is T2, PiQC. The series is described as above. Type of series: biochemical. The conditions noted are these: 1% DMSO, pH 8.0, 30 °C. As to the method: as §7
Series [7] has as its target T3, PgQC. The description is as above. Also on record: His-tag (pET28a, thrombin-cleavable) (N, cleaved yes); made in house; host or cells: E. coli Rosetta(DE3)pLysS. Type of series: biochemical. The procedure:
as §7

In series [8] the target is T4, HsQC. More on the design: method as in Schilling et al. ([44]). Conditions: ref Schilling et al. ([44]); cited from earlier work.
The target in series [9] is T1, TfQC. Briefly: Kinetics of cyclization of H-Gln-AMC. It counts as biochemical. As to the method:
(§8) QC activity was evaluated using the fluorogenic substrate H-Gln-AMC as described previously ([43]). Measurements were performed at different concentrations of fluorogenic substrate and 0.5 U pyroglutaminyl aminopeptidase in 50 mM Tris-HCl, 50 mM NaCl at pH 8.0. After 10 min incubation time at 30 °C, the reaction was initiated by addition of approximately 50 nM QC to a final volume of 125 μl reaction mixture. QC activity was calculated from a standard curve of the fluorophore AMC at assay conditions using excitation/emission wavelengths of 380/460 nm. All measurements were carried out in 96-well microtiter plates (Fisher Scientific) at 30 °C using the FluoStar Optima (BMG Labtech). All kinetic data were evaluated using GraFit software (Version 7, Erithacus software Ltd).
(§9) Supplementary Figure 1: QC activity measurements for bacteroidal QC cataly zed cyclization of the fluorogenic substrate H-Gln-AMC. (A) v/S-characteristics and Lineweaver-Burk plots for PgQC (red circles), TfQC (green triangles) and PiQC (blue squares). QC activity measurements were performed in 50 mM Tris-HCl, pH 8.0 and 50 mM NaCl at 30°C. Kinetic data were evaluated using GraFit software (Version 7, Erithacus software Ltd., Horley, UK). (B) pH dependence of PgQC, TfQC, and PiQC activities; colors and sy mbols as in (A). The specificity constants kcat/KM were determined under first-order rate law conditions with substrate concentrations of 1/10 KM.
(§10) Measurements were carried out at 30°C in buffer consisting of 0.1 M Tris-HCl, 0.05 MES, 0.05 mM acetic acid and 0.05 mM NaCl.. […]

In series [10] the target is T3, PgQC. The procedure: as §8, §9, §10
Series [11] addresses T2, PiQC. Type of series: biochemical. The procedure:
as §8, §9, §10

Substrate in series [12]: CC(C)[C@H](NC(=O)[C@H](CO)NC(=O)[C@H](C)NC(=O)[C@H](CC(N)=O)NC(=O)[C@H](CO)NC(=O)[C@H](CCC(=O)O)NC(=O)[C@@H](N)CCC(N)=O)C(=O)N[C@@H](CCCNC(=N)N)C(=O)N1CCC[C@H]1C(=O)N[C@@H](CO)C(N)=O
The series is described as follows: Conversion of N-termini of putative natural substrates, spectrophotometric assay with glutamate dehydrogenase. The conditions noted are these: other: PgQC; determined under first-order-rate law conditions, [S] << KM; pH 8.0; 30.0 °C. It counts as biochemical, Porphyromonas gingivalis. The procedure: (§11) For evaluation of possible physiological substrates, PgQC activity was determined spectrophotometrically by using glutamate dehydrogenase as auxiliary enzyme described previously ([44]). […] After 10-min incubation time at 30 °C, reactions were initiated by addition of approximately 115 nM PgQC to a final volume of 250 μl reaction mixture. QC turnover of substrates was monitored by a decrease of absorption at 340 nm and enzyme activity was determined from a standard curve of NH4Cl at assay conditions.

Substrate in series [13]: CC[C@H](C)[C@H](NC(=O)[C@H](CO)NC(=O)[C@H](CC(=O)O)NC(=O)[C@@H]1CCCN1C(=O)[C@@H](NC(=O)[C@@H](NC(=O)[C@H](CO)NC(=O)[C@@H](N)CCC(N)=O)C(C)C)C(C)C)C(=O)NCC(=O)N[C@@H](CCCNC(=N)N)C(N)=O
The description is as above. The conditions noted are these: other: PgQC, pH 8.0, 30 °C. Type of series: biochemical, Porphyromonas gingivalis. The procedure: as §11

Substrate in series [14]: CC(C)[C@H](NC(=O)[C@H](CCC(N)=O)NC(=O)[C@@H](N)CCC(N)=O)C(=O)N[C@@H](C)C(=O)N[C@@H](C)C(=O)N[C@@H](C)C(=O)N[C@@H](CC(=O)O)C(=O)N1CCC[C@H]1C(=O)N[C@@H](CO)C(=O)N1CCC[C@H]1C(N)=O
The series is described as above. It counts as biochemical, Porphyromonas gingivalis. The conditions noted are these: other: PgQC; determined under first-order-rate law conditions, [S] << KM; pH 8.0; 30.0 °C. The procedure:
as §11

Substrate in series [15]: C[C@H](NC(=O)[C@H](CCC(=O)O)NC(=O)[C@H](Cc1ccc(O)cc1)NC(=O)[C@@H](NC(=O)[C@H](CCCNC(=N)N)NC(=O)[C@H](CC(N)=O)NC(=O)[C@H](CCCNC(=N)N)NC(=O)[C@H](CO)NC(=O)[C@@H](N)CCC(N)=O)[C@@H](C)O)C(=O)N[C@@H](Cc1ccc(O)cc1)C(N)=O
The series is described as above. It counts as biochemical, Porphyromonas gingivalis. The conditions noted are these: other: PgQC, pH 8.0, 30 °C. The procedure: as §11

Substrate in series [16]: CC[C@H](C)[C@H](NC(=O)[C@@H](NC(=O)[C@H](CC(=O)O)NC(=O)[C@@H](N)CCC(N)=O)C(C)C)C(=O)N[C@@H](CCCNC(=N)N)C(=O)N1CCC[C@H]1C(=O)N[C@@H](Cc1c[nH]c2ccccc12)C(=O)N[C@@H](CO)C(=O)N[C@@H](CC(C)C)C(=O)N[C@@H](CCC(N)=O)C(N)=O
The description is as above. Type of series: biochemical, Porphyromonas gingivalis. Conditions: other: PgQC; determined under first-order-rate law conditions, [S] << KM; pH 8.0; 30.0 °C. As to the method: as §11

Setting [17] is: H-Gln-AMC substrate, 1% DMSO, pH 8.0, 30 °C, read-out: Inhibition of QC (Ki) PgQC.

Read-outs that look alike come from different tables or passages of the source.

T2 sequence (A0AAD1F671 24-340 limits assumed): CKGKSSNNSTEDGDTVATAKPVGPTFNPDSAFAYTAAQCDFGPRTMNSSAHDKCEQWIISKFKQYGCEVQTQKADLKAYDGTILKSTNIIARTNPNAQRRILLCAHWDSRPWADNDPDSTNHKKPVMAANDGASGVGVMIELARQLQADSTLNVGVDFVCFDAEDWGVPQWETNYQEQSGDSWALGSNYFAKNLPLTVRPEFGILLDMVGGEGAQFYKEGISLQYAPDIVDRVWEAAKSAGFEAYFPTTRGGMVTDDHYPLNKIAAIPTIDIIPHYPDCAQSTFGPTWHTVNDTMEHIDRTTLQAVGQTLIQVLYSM
T1 sequence (G8UMP8 entry or part of it): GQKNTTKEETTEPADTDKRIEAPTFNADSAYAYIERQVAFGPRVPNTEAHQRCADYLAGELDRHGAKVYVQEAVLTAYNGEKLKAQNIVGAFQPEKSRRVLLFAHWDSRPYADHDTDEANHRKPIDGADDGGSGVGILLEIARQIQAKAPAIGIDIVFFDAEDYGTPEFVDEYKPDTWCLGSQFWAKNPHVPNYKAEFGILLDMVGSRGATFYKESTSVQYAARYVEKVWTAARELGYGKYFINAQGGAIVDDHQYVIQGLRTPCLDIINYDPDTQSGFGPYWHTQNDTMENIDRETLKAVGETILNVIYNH

Consider `O=C(O)CN(CCN(CC(=O)O)CC(=O)O)CC(=O)O` [EDTA], for which the “Effect of chelator on QC activity” value on TfQC [1], on PiQC [2] and on PgQC [3] was “little influence” throughout.
As to `c1ccc2[nH]cnc2c1` [Benzimidazole, benzimidazole], the Ki (usually a measure of affinity in units of concentration, obtained from inhibition or displacement) is 318 ± 23 µM on HsQC [4], 170 ± 1 µM on TfQC [5], 85.5 ± 4.7 µM at PiQC [6] and 32.1 ± 1.4 µM on PgQC [7] (setting [17]).
Turning to `c1c[nH]cn1` [Imidazole, imidazole], the inhibition constant (Ki) worked out at 280 ± 15 µM on TfQC [5], 288 ± 11 µM at PiQC [6] and 349 ± 23 µM at PgQC [7] (setting [17]).
Consider `c1cnc2c(c1)ccc1cccnc12` [1,10-phenanthroline], for which the “Effect of chelator on QC activity” value at TfQC [1], at PiQC [2] and at PgQC [3] was “strong inhibitory activity” throughout. The “Sensitivity of PiQC to chelator” value on PiQC [2] (PiQC compared with other bacteroidal QCs) was “particularly sensitive”.
`O=C(O)c1cccc(C(=O)O)n1` [dipicolinic acid]: the “Effect of chelator on QC activity” value at TfQC [1], at PiQC [2] and on PgQC [3] was “strong inhibitory activity” in each case.
Consider `c1ccc(Cn2ccnc2)cc1` [1-Benzylimidazol, 1-benzylimidazole], for which the Ki at HsQC [4] is 16.8 ± 3.5 µM; on TfQC [5], 6.45 ± 0.33 µM; on PiQC [6] it was 13.5 ± 2.2 µM; on PgQC [7] (setting [17]) it was 10.4 ± 0.3 µM; at PgQC [7] (stated in text for the bacteroidal QCs in general, read-out: Estimated Ki, highest efficacy), around 10 µM. For the same molecule, the “Mode of inhibition of PgQC” value on PgQC [7] (Fig. S3) is recorded as “competitive manner”.
On to `Cc1cc(=O)oc2cc(NC(=O)[C@@H](N)CCC(N)=O)ccc12` [H-Gln-AMC], for which the Km (usually the concentration of substrate that gives half-maximal velocity) is 54 ± 2 µM on HsQC [8]; 1090 ± 30 µM at TfQC [9] (pH 8.0, 30 °C); 510 ± 13 µM at PgQC [10] (pH 8.0, 30 °C); 645 ± 7 µM at PiQC [11] (pH 8.0, 30 °C). The kcat – broadly, the number of substrate molecules converted per active site and unit of time at saturation – at HsQC [8] was 5.3 ± 0.1 s⁻¹; at TfQC [9] (pH 8.0, 30 °C) it was 4.49 ± 0.22 s⁻¹; at PgQC [10] (pH 8.0, 30 °C) it was 4.71 ± 0.22 s⁻¹; at PiQC [11] (pH 8.0, 30 °C) it was 8.51 ± 0.37 s⁻¹. For the same molecule, the “KM value higher compared with HsQC” value on TfQC [9] is around 20 fold. Also, the “specificity constant kcat/KM relative to that of HsQC” value is “approximately 4%” on TfQC [9], around 9% on PgQC [10] and around 13% on PiQC [11].

B1: PgQC (Porphyromonas gingivalis W83) (protein)
chain: NGNNTSETQGDRTEQAETVQADLFSADSAYTFVQRQVNFGPRIPGTAPHRACGDWLVATLRSFGAAVQEQTAEIKAHDGTMLPMRNIIASYRPEATGRMLLMAHWDTRPVCDQDANPAMHTETFDGADDGGSGVGVLLEIARYLGQQKDLGMGIDIVFFDTEDYGSYGDDESWCLGSQYWSRNPHVAGYKAEAGILLDMVGAKGATFYWEYFSKSYAPGLISAVWQTAAALGYGNYFIQADGGALTDDHVPVIKNLGIPCIDIINYSSKNEHGFGDHWHTQRDNMQIIDKNVLDAVGETVIRYLDEQVKAASH
With B1, the kcat/Km (usually the turnover number divided by the Michaelis constant) in [12] was 4300 ± 100 M⁻¹ s⁻¹; in series [13], 14300 ± 600 M⁻¹ s⁻¹; in series [14], 12500 ± 1900 M⁻¹ s⁻¹; in [15], 65100 ± 6000 M⁻¹ s⁻¹; in series [16], 18600 ± 100 M⁻¹ s⁻¹. In addition, the Michaelis-Menten constant (Km) in [13] came out at 492.5 ± 26 µM; in [15] it was 203.7 ± 5.1 µM. Besides, the turnover number (kcat) in [13] was 7 ± 0.66 s⁻¹; in series [15], 13.3 ± 1.6 s⁻¹.

The values are drawn from PMC7948796, “Mammalian-like type II glutaminyl cyclases in Porphyromonas gingivalis and other oral pathogenic bacteria as targets for treatment of periodontitis” (The Journal of Biological Chemistry, 2021).
